Assay results: paper PMC4951033, “Elevation of the Yields of Very Long Chain Polyunsaturated Fatty Acids via Minimal Codon Optimization of Two Key Biosynthetic Enzymes” (PLoS ONE, 2016)

Target: T1, PinD6 (PinDes6, delta-6 desaturase) (Phytophthora infestans, UniProt A0A833SQW7)
T1 construct: gene GN244_ATG16356

Compound	GC of fatty acid methyl esters from fed yeast
CC/C=C\C/C=C\C/C=C\CCCCCCCC(=O)O [ALA, α-linolenic acid]	WT-PinD6 can convert LA and ALA to GLA and SDA
CCCCC/C=C\C/C=C\CCCCCCCC(=O)O [LA]	WT-PinD6 can convert LA and ALA to GLA and SDA
